What was measured:
[1] = tested on: Rauscher Murine Leukemia Virus (MLV); assay: Rauscher MuLV UV-XC plaque assay; assay type: cell-based
Description: (§1) One such method is used to determine the effectiveness of representative compounds and compositions of the present invention in the Rauscher and LP-BMS Murine Leukemia Virus (MLV) In Vitro Assays.
(§2) SC-1 cells were grown as monolayers in 6-well tissue culture plates (Falcon). The a test compound was added to the cultures at the time of virus inoculation (approximately 24 hours after the cells were seeded) and was present for 3 days, at which time the cultures were irradiated with UV light. All compounds were solubilized in DMSO prior to dilution in grown medium. The highest concentration of DMSO present in the cultures was 0.05%. The test cultures (triplicate cultures per drug concentrate) each contained 2 ml of test compound diluted in growth medium (Eagle's minimum) essential medium (EMEM) supplemented with 5% heat-inactivated fetal bovine serum (FBS) and 0.5 ml of the virus suspension diluted to produce a countable number of plaques per well. The six virus control cultures contained 2 ml of medium and 0.5 ml of the virus suspension. NSC606170(ddC) was included as a positive control. drug. Drug cytotoxicity control cultures (containing test compound) but no virus and cell control culture (containing no test compound) or virus were included in the assay. On day 3 post-virus inoculation, the cultures were irradiated and XC cells were added. Three days after V-irradiation, the cultures were fixed with formalin and stained with 0.1% crystal violet. The plaques were counted with the aid of a dissection microscope.
(§3) Using the procedure, the following data is generated from representative compounds of the presnet invention.

HIV-1 = assay: XTT assay of protection from HIV-1 cytopathic effect, infected, CEM-IW; assay type: cell-based, Human Immunodeficiency Virus; details: Human immunodeficiency virus 1, CEM-IW, summary table; read-out: CEM-IW EC50
Description: Another assay for testing the efficacy of the compounds is the procedure* used in the National Cancer Institute's test for agents active against Human Immunodeficiency Virus (HIV). It is designed to detect agents acting at any stage of the virus reproductive cycle. The assay basically involves the killing of T4 lymphocytes by HIV. Small amounts of HIV are added to cells, and a complete cycle of virus reproduction is necessary to obtain the required cell killing. Agents that interact with virions, cells, or virus gene-products to interfere with viral activities will protect cells from cytolysis. The system is automated in several features to accommodate large numbers of candidate agents and is generally designed to detect anti-HIV activity. However, compounds that degenerate, or are rapidly metabolized in the culture conditions may not show activity in this screen. All tests are compared with at least one positive (e.g., AZT-treated) control done at the same time under identical conditions.
* Weislow. O. W., Kiser, R., Fine, D., Bader, J., Shoemaker, R. H., Boyd, M. R.: New soluble-formazan assay for HIV-1 cytopathic effects: application to high-flux screening of synthetic and natural products for AIDS-antiviral activity. J. Natl. Cancer Inst. 81:577-586, 1989.
1. The Candidate agent is dissolved in dimethyl sulfoxide (unless otherwise instructed) then diluted 1:100 in cell culture medium before preparing serial half-log10 dilutions. T4 lymphocytes (CEM cell line) are added and after a brief interval HIV-1 added, resulting in a 1:200 final dilution of the compound. Uninfected cells with the compound serve as a toxicity control, and infected and uninfected cells without compound serve as basic controls.
2. Cultures are incubated at 37° in a 5% carbon dioxide atmosphere for 6 days.
3. The tetrazolium salt, XTT, is added to all wells, and cultures are incubated to allow formazan color development by viable cells.
4. Individual wells are analyzed spectrophotometrically to quantitate formazan production, and in addition are viewed microscopically for detection of viable cells and confirmation of protective activity.
5. Drug-treated virus-infected cells are compared with drug-treated noninfected cells and with other appropriate controls (untreated infected and untreated noninfected: cells, drug-containing wells without cells, etc.) on the same plate.
6. Data are reviewed in comparison with other tests done at the same time and a determination about activity is made.

LP-BM5 MuLV = LP-BM5 MuLV UV-XC plaque assay; assay type: cell-based, Murine Leukemia Virus; details: for inhibition at 100 µM / inhibition at 10 µM / inhibition at 1 µM / inhibition at 0.1 µM / inhibition at 0.01 µM: Murine leukemia virus, SC-1, read-out: % Plaque Reduction
Description: as §1, §2, §3

[2] = Murine leukemia virus, SC-1, 1 × 10^-4 M, read-out: % Plaque Reduction
[3] = Murine leukemia virus, SC-1, 1 × 10^-5 M, read-out: % Plaque Reduction
[4] = Murine leukemia virus, SC-1, 1 × 10^-6 M, read-out: % Plaque Reduction
[5] = Murine leukemia virus, SC-1, 1 × 10^-7 M, read-out: % Plaque Reduction
[6] = Murine leukemia virus, SC-1, 1 × 10^-8 M, read-out: % Plaque Reduction

O=[N+]([O-])c1ccccc1S(=O)(=O)c1ccccc1 [Compound 1, 1-Nitro-2-(phenylsulfonyl)benzene]
Mean plaque count ([1]; 1 × 10^-4 M): 46 | Plaque count, replicate #1 ([1]; 1 × 10^-4 M): 43 | Plaque count, replicate #2 ([1]; 1 × 10^-4 M): 48 | Plaque count, replicate #3 ([1]; 1 × 10^-4 M): 46 | Mean plaque count ([1]; 1 × 10^-5 M): 53 | Plaque count, replicate #1 ([1]; 1 × 10^-5 M): 58 | Plaque count, replicate #2 ([1]; 1 × 10^-5 M): 42 | Plaque count, replicate #3 ([1]; 1 × 10^-5 M): 60 | Mean plaque count ([1]; 1 × 10^-6 M): 56 | Plaque count, replicate #1 ([1]; 1 × 10^-6 M): 71 | Plaque count, replicate #2 ([1]; 1 × 10^-6 M): 43 | Plaque count, replicate #3 ([1]; 1 × 10^-6 M): 53 | Mean plaque count ([1]; 1 × 10^-7 M): 64 | Plaque count, replicate #1 ([1]; 1 × 10^-7 M): 53 | Plaque count, replicate #2 ([1]; 1 × 10^-7 M): 69 | Plaque count, replicate #3 ([1]; 1 × 10^-7 M): 71 | Mean plaque count ([1]; 1 × 10^-8 M): 65 | Plaque count, replicate #1 ([1]; 1 × 10^-8 M): 64 | Plaque count, replicate #2 ([1]; 1 × 10^-8 M): 55 | Plaque count, replicate #3 ([1]; 1 × 10^-8 M): 76 | inhibition at 100 µM [1, 2]: 26% | inhibition at 10 µM [1, 3]: 14% | inhibition at 1 µM [1, 4]: 10% | inhibition at 0.1 µM [1, 5]: 0% | inhibition at 0.01 µM [1, 6]: 0% | EC50 (HIV-1): 4.41 µM | Mean plaque count (LP-BM5 MuLV; 1 × 10^-4 M): 254 | Plaque count, replicate #1 (LP-BM5 MuLV; 1 × 10^-4 M): 219 | Plaque count, replicate #2 (LP-BM5 MuLV; 1 × 10^-4 M): 216 | Plaque count, replicate #3 (LP-BM5 MuLV; 1 × 10^-4 M): 328 | Mean plaque count (LP-BM5 MuLV; 1 × 10^-5 M): 261 | Plaque count, replicate #1 (LP-BM5 MuLV; 1 × 10^-5 M): 335 | Plaque count, replicate #2 (LP-BM5 MuLV; 1 × 10^-5 M): 216 | Plaque count, replicate #3 (LP-BM5 MuLV; 1 × 10^-5 M): 232 | Mean plaque count (LP-BM5 MuLV; 1 × 10^-6 M): 255 | Plaque count, replicate #1 (LP-BM5 MuLV; 1 × 10^-6 M): 337 | Plaque count, replicate #2 (LP-BM5 MuLV; 1 × 10^-6 M): 218 | Plaque count, replicate #3 (LP-BM5 MuLV; 1 × 10^-6 M): 210 | Mean plaque count (LP-BM5 MuLV; 1 × 10^-7 M): 207 | Plaque count, replicate #1 (LP-BM5 MuLV; 1 × 10^-7 M): 201 | Plaque count, replicate #2 (LP-BM5 MuLV; 1 × 10^-7 M): 192 | Plaque count, replicate #3 (LP-BM5 MuLV; 1 × 10^-7 M): 228 | Mean plaque count (LP-BM5 MuLV; 1 × 10^-8 M): 246 | Plaque count, replicate #1 (LP-BM5 MuLV; 1 × 10^-8 M): 222 | Plaque count, replicate #2 (LP-BM5 MuLV; 1 × 10^-8 M): 204 | Plaque count, replicate #3 (LP-BM5 MuLV; 1 × 10^-8 M): 311 | inhibition at 100 µM (LP-BM5 MuLV; 1 × 10^-4 M): 11% | inhibition at 10 µM (LP-BM5 MuLV; 1 × 10^-5 M): 9% | inhibition at 1 µM (LP-BM5 MuLV; 1 × 10^-6 M): 11% | inhibition at 0.1 µM (LP-BM5 MuLV; 1 × 10^-7 M): 27% | inhibition at 0.01 µM (LP-BM5 MuLV; 1 × 10^-8 M): 14%

Cc1ccc(S(=O)(=O)c2ccccc2[N+](=O)[O-])cc1 [Compound 2, 1-(4-Methylphenylsulfonyl)-2-nitrobenzene]
Mean plaque count ([1]; 1 × 10^-3 M): 19 | Plaque count, replicate #1 ([1]; 1 × 10^-3 M): 20 | Plaque count, replicate #2 ([1]; 1 × 10^-3 M): 20 | Plaque count, replicate #3 ([1]; 1 × 10^-3 M): 17 | Mean plaque count ([1]; 1 × 10^-4 M): 8 | Plaque count, replicate #1 ([1]; 1 × 10^-4 M): 9 | Plaque count, replicate #2 ([1]; 1 × 10^-4 M): 8 | Plaque count, replicate #3 ([1]; 1 × 10^-4 M): 8 | Mean plaque count ([1]; 1 × 10^-5 M): 64 | Plaque count, replicate #1 ([1]; 1 × 10^-5 M): 60 | Plaque count, replicate #2 ([1]; 1 × 10^-5 M): 69 | Plaque count, replicate #3 ([1]; 1 × 10^-5 M): 64 | Mean plaque count ([1]; 1 × 10^-6 M): 61 | Plaque count, replicate #1 ([1]; 1 × 10^-6 M): 72 | Plaque count, replicate #2 ([1]; 1 × 10^-6 M): 53 | Plaque count, replicate #3 ([1]; 1 × 10^-6 M): 5 | Mean plaque count ([1]; 1 × 10^-7 M): 56 | Plaque count, replicate #1 ([1]; 1 × 10^-7 M): 52 | Plaque count, replicate #2 ([1]; 1 × 10^-7 M): 57 | Plaque count, replicate #3 ([1]; 1 × 10^-7 M): 60 | Mean plaque count ([1]; 1 × 10^-8 M): 60 | Plaque count, replicate #1 ([1]; 1 × 10^-8 M): 62 | Plaque count, replicate #2 ([1]; 1 × 10^-8 M): 56 | Plaque count, replicate #3 ([1]; 1 × 10^-8 M): 63 | inhibition at 1000 µM ([1]; Murine leukemia virus, SC-1, 1 × 10^-3 M, read-out: % Plaque Reduction): 69% | inhibition at 100 µM [1, 2]: 87% | inhibition at 10 µM [1, 3]: 0% | inhibition at 1 µM [1, 4]: 2% | inhibition at 0.1 µM [1, 5]: 9% | inhibition at 0.01 µM [1, 6]: 3% | EC50 (HIV-1): 14.5 µM | Mean plaque count (LP-BM5 MuLV; 1 × 10^-3 M): 130 | Plaque count, replicate #1 (LP-BM5 MuLV; 1 × 10^-3 M): 162 | Plaque count, replicate #2 (LP-BM5 MuLV; 1 × 10^-3 M): 123 | Plaque count, replicate #3 (LP-BM5 MuLV; 1 × 10^-3 M): 104 | Mean plaque count (LP-BM5 MuLV; 1 × 10^-4 M): 50 | Plaque count, replicate #1 (LP-BM5 MuLV; 1 × 10^-4 M): 43 | Plaque count, replicate #2 (LP-BM5 MuLV; 1 × 10^-4 M): 37 | Plaque count, replicate #3 (LP-BM5 MuLV; 1 × 10^-4 M): 70 | Mean plaque count (LP-BM5 MuLV; 1 × 10^-5 M): 245 | Plaque count, replicate #1 (LP-BM5 MuLV; 1 × 10^-5 M): 265 | Plaque count, replicate #2 (LP-BM5 MuLV; 1 × 10^-5 M): 204 | Plaque count, replicate #3 (LP-BM5 MuLV; 1 × 10^-5 M): 267 | Mean plaque count (LP-BM5 MuLV; 1 × 10^-6 M): 264 | Plaque count, replicate #1 (LP-BM5 MuLV; 1 × 10^-6 M): 270 | Plaque count, replicate #2 (LP-BM5 MuLV; 1 × 10^-6 M): 217 | Plaque count, replicate #3 (LP-BM5 MuLV; 1 × 10^-6 M): 304 | Mean plaque count (LP-BM5 MuLV; 1 × 10^-7 M): 299 | Plaque count, replicate #1 (LP-BM5 MuLV; 1 × 10^-7 M): 327 | Plaque count, replicate #2 (LP-BM5 MuLV; 1 × 10^-7 M): 269 | Plaque count, replicate #3 (LP-BM5 MuLV; 1 × 10^-7 M): 301 | Mean plaque count (LP-BM5 MuLV; 1 × 10^-8 M): 318 | Plaque count, replicate #1 (LP-BM5 MuLV; 1 × 10^-8 M): 299 | Plaque count, replicate #2 (LP-BM5 MuLV; 1 × 10^-8 M): 340 | Plaque count, replicate #3 (LP-BM5 MuLV; 1 × 10^-8 M): 314 | inhibition at 100 µM (LP-BM5 MuLV; 1 × 10^-4 M): 82% | inhibition at 10 µM (LP-BM5 MuLV; 1 × 10^-5 M): 14% | inhibition at 1 µM (LP-BM5 MuLV; 1 × 10^-6 M): 8% | inhibition at 0.1 µM (LP-BM5 MuLV; 1 × 10^-7 M): 0% | inhibition at 0.01 µM (LP-BM5 MuLV; 1 × 10^-8 M): 0%

From patent US5679695A, “Aryl and heteroaryl compounds having anti-retrovirus activity” (The University of Connecticut, priority 1995, dated 1997)
